Like-named read-outs stand apart in the source and are kept apart here.
Assays:
[1] = tested on: SSAT mRNA; experiment: Northern blot analysis of SSAT mRNA in clone H-10 cells ±Dox treated with DENSPM; format: cell-based, human; details: for SSAT mRNA / SSAT Effects: mRNA (fold): 48 h; for SSAT mRNA: relative to closed untreated = 1; for SSAT Effects: mRNA (fold): DENSPM 10 μM
Experimental: (§1) A MCF-7 breast carcinoma cell line stably transfected with a tetracycline-off transfection system was purchased from Clontech Laboratories Inc. (Palo Alto, Calif.). The cells were cultured in Dulbecco's Modified Eagle's Medium (DMEM; Life Technologies, Gaithersburg, Md.), supplemented with 2 mM glutamine, 10% fetal bovine serum, penicillin at 100 U/ml, streptomycin at 100 U/ml and the antibiotic G418 (Life Technologies) at 100 μg/ml at 37° C. in the presence of 5% CO2.Cells were harvested by trypsinization and counted electronically (Coulter Model ZM, Coulter Electronics, Hialeah, Fla.). During treatment with polyamines or analogs, 1 mM aminoguanidine was routinely included in the media to prevent enzymatic oxidation to toxic products.
(§2) Total RNA was extracted with guanidine isothiocyanate and purified by the commonly used cesium chloride gradient centrifugation. Human SSAT cDNA probe (Xiao et al, 1991, supra) was used in Northern blot analyses. ODC and SSAT enzyme activities were assayed as reported earlier (Kramer et al., 1995, J. Biol. Chem. 270, 2124-2132.31). Polyamines, their acetylated derivatives and the polyamine analog DENSPM were measured by high performance liquid chromatography as previously described in detail by Kramer et al. (Kramer et al., 1993, supra), which method is incorporated herein by reference.
(§3) To enhance the growth inhibitory effects of DENSPM, and to more definitively examine the relationship between SSAT overexpression and cell growth, a cell line was developed in which SSAT expression is conditionally regulated by doxycycline (DOX) an analog of tetracycline which penetrates cells more effectively. MCF-7 cells containing the pTet-Off plasmid were transfected with the PTRE/expression plasmids described above using the Lipofectin method (Notarangelo et al., 1997, Focus, 19, 58-59, incorporated herein by reference). To facilitate clone selection, cells were co-transfected with a pTK-Hyg vector (Clontech Laboratories, Inc.). Transfected clones resistant to […] hygromycin were selected and tested for SSAT enzyme activity and/or mRNA in the presence or absence of 200 ng/ml Dox [+Dox and −Dox, respectively (Clontech Laboratories, Inc)]. In the presence of Dox, SSAT transcription is closed; in the absence of Dox, SSAT transcription is open. […] Clones, which expressed the lowest basal levels of SSAT activity or mRNA in +Dox and the greatest induced level of SSAT activity or mRNA −Dox, were selected for further study. Clones were maintained continuously under +Dox conditions until experiments were initiated.
(§4) In this table are presented the effects of conditional overexpression on DENSPM induced SSAT mRNA and activity and on polyamine pool depletion. When exposed to 10 μM DENSPM for 24 h, MRNA levels increased by 4-fold in induced cells and remained at ^˜20-fold in uninduced cells. Presumably, some rate-limiting step prevented DENSPM from increasing MRNA beyond the already high levels in these cells.

[2] = tested on: spermidine-spermine N^1-acetyltransferase (SSAT); experiment: SSAT enzyme activity in clone H-10 cells ±Dox treated with DENSPM; format: cell-based, human; details: for increase in SSAT activity: 10 μM DENSPM; for DENSPM-induced SSAT activity: cells transfected with human SSAT cDNA; for SSAT Activity / SSAT Effects: Activity (fold): 48 h; for SSAT Activity: relative to closed untreated = 1; for SSAT Effects: Activity (fold): DENSPM 10 μM
Experimental: as §1, §2, §3, §4

[3] = tested on: Polyamine pools in H-10 cells; experiment: Polyamine pools by HPLC in H-10 cells ±Dox treated with DENSPM; format: cell-based, human; details: for Polyamine Pools: AcSpd / Polyamine Pools: AcSpm / Polyamine Pools: Put / Polyamine Pools: Spd / Polyamine Pools: Spm: 48 h
Experimental: as §1, §2, §4

[4] = tested on: MCF-7/hSc clone H-10 cells; experiment: Growth inhibition and dose-response of clone H-10 cells (MCF-7/hSc) ±Dox by DENSPM; format: cell-based, human; details: for growth inhibition: by 48 h; for Growth Effects: Onset of cytotoxicity: DENSPM 10 μM
Experimental: as §1
(§5) Relative growth inhibition by DENSPM. The relative antiproliferative effect exerted by DENSPM in H-10 and M-3 cells grown ±Dox was studied over an extended (8 d) time period. As shown in the FIG. 9, H-10-Dox cells were strikingly more sensitive to the antiproliferative action of the DENSPM than +Dox cells. Less than 15% growth inhibition was achieved by 48 h in +Dox H-10 cells compared to >80% in −Dox cells (FIG. 9). […] As a generality, DENSPM-mediated growth inhibition tended to be more cytotoxic during SSAT induction as indicated by the rapid loss in cell number (FIG. 9).
The increased sensitivity of SSAT induced H-10 cells to DENSPM was quantitated by dose-response analysis. Cells were grown for 48 h ±Dox and then exposed to increasing concentrations of DENSPM for 48 h (FIG. 10). In the IC50 comparisons, −Dox cells were about approximately 100-fold more sensitive to DENSPM than +Dox cells (i.e. comparing IC50 values of 0.2 and 20 μM, respectively).

[5] = tested on: MCF-7/mSg clone M-3 cells; experiment: Growth inhibition of clone M-3 cells (MCF-7/mSg) ±Dox by DENSPM; format: cell-based, human
Experimental: as §1, §5

[6] = tested on: ornithine decarboxylase (ODC); experiment: ODC enzyme activity in H-10 cells treated with DENSPM; format: cell-based, human; details: both +Dox and -Dox cells, irrespective of SSAT induction
Experimental: as §1
as §2, with “reference. […]” for “reference.”

[7] = tested on: spermidine-spermine N^1-acetyltransferase (SSAT); details: in many tumor cells; cited from earlier work

In the case of `CCNCCCNCCCNCCCNCC` [DENSPM, N^1, N^11diethylnorspermine], the “SSAT mRNA levels increase” value ([1]; 10 μM DENSPM for 24 h, 'induced cells' as printed) is reported as 4 fold, the “SSAT mRNA levels” value ([1]; 10 μM DENSPM for 24 h, 'uninduced cells' as printed) is reported as roughly 20 fold and the “SSAT mRNA” value ([1]; Closed (+Dox) +DENSPM) is reported as 8 X. For the same compound, the “SSAT Effects: mRNA (fold)” value ([1]; Closed (Dox 200 ng/ml)) was 8X fold, the “SSAT mRNA” value ([1]; Open (-Dox) +DENSPM) was 20 X and the “SSAT Effects: mRNA (fold)” value ([1]; Open (no Dox)) was 20X fold. For the same compound, the “increase in SSAT activity” value ([2]; +Dox cells) was greater than 80 fold, the “DENSPM-induced SSAT activity” value ([2]; +Dox conditions (closed)) was roughly 90 fold and the “increase in SSAT activity” value ([2]; -Dox cells) was greater than 1500 fold. For the same compound, the “DENSPM-induced SSAT activity” value ([2]; -Dox conditions (open)) was 1700 fold, the “SSAT Activity” value ([2]; Closed (+Dox) +DENSPM) was 89 X and the “SSAT Effects: Activity (fold)” value ([2]; Closed (Dox 200 ng/ml)) was 89X fold. For the same compound, the “SSAT Activity” value ([2]; Open (-Dox) +DENSPM) was 1,700 X, the “SSAT Effects: Activity (fold)” value ([2]; Open (no Dox)) was 1700X fold and the “difference in SSAT activity with DENSPM treatment, open vs closed” value ([2]; from Table 3) was “about 20 fold”. For the same compound, the “Polyamine Pools: AcSpd” value ([3]; Closed (+Dox) +DENSPM) was 20 pmol/10^6 cells, the “Polyamine Pools: AcSpm” value ([3]; Closed (+Dox) +DENSPM) was 50 pmol/10^6 cells and the “Polyamine Pools: Put” value ([3]; Closed (+Dox) +DENSPM) was 50 pmol/10^6 cells. For the same compound, the “Polyamine Pools: Spd” value ([3]; Closed (+Dox) +DENSPM) was 110 pmol/10^6 cells, the “Polyamine Pools: Spm” value ([3]; Closed (+Dox) +DENSPM) was 750 pmol/10^6 cells and the “Polyamine Pools: AcSpd” value ([3]; Open (-Dox) +DENSPM) was less than 5 pmol/10^6 cells. The “Polyamine Pools: AcSpm” value ([3]; Open (-Dox) +DENSPM) was 20 pmol/10^6 cells, the “Polyamine Pools: Put” value ([3]; Open (-Dox) +DENSPM) was less than 5 pmol/10^6 cells and the “Polyamine Pools: Spd” value ([3]; Open (-Dox) +DENSPM) was less than 5 pmol/10^6 cells. For the same compound, the “Polyamine Pools: Spm” value ([3]; Open (-Dox) +DENSPM) was 65 pmol/10^6 cells, the “depletion of all three polyamines” value ([3]; by 48 h, both +Dox and -Dox cells) was “near total depletion” and the growth inhibition ([4]; +Dox H-10 cells) was “Less than 15%”. The IC50 ([4]; +Dox H-10 cells, grown 48 h ±Dox, then DENSPM 48 h, read-out: IC50 of DENSPM (growth)) was 20 µM, the growth inhibition ([4]; -Dox H-10 cells) was greater than 80% and the IC50 ([4]; -Dox H-10 cells, grown 48 h ±Dox, then DENSPM 48 h, read-out: IC50 of DENSPM (growth)) was 0.2 µM. For the same compound, the IC50 ([4]; Closed (Dox 200 ng/ml), 48 h, read-out: Growth Effects: IC50 Dose) was 200 µM, the “Growth Effects: Onset of cytotoxicity” value ([4]; Closed (Dox 200 ng/ml)) was 4 days and the “Growth Effects: Onset of cytotoxicity” value ([4]; Open (no Dox)) was “immediate”. The growth inhibition ([5]; induced M-3 cells) was 78%, the growth inhibition ([5]; uninduced M-3 cells) was 25% and the “effect on ODC activity” value [6] was “suppressed ODC activity”. The “induction of SSAT activity” value [7] was “exceed 1000 fold”.

— US6413775B1, “Polyamine analog-activated SSAT gene therapy” (Health Research, Inc., priority 1999, dated 2002)
